Assay results taken from patent publication US20100113602A1, “USE OF HISTONE DEACETYLASE INHIBITORS FOR THE TREATMENT OF CENTRAL NERVOUS SYSTEM METASTASES” (The United States of America,as represented by the …, priority 2007, published 2010).

System: MDA-MB-231-BR cells brain metastases
Assay: Brain metastasis model, intracardiac MDA-MB-231-BR cells in nude mice (Example 5)
Assay type: in vivo, Balb/c nude mice
Design: key to Mean Large Mets: mean no. of large metastases (>50 microns^2) per mouse; key to Mean Micromets: mean no. of metastases in 10 step sections of one hemisphere
Details: for Mean Large Mets: large >50 microns^2
Method: Cells are prepared as described in Example 2 with additional preparation as follows. The retroviral vector pLEGFP-C1 (BD Biosciences, San Jose, Calif.) is transfected into murine fibroblast PT67 packaging cells using Effectene reagent according to the manufacturer's protocol (Qiagen, Germantown, Md.). After 24 hours, enhanced green fluorescent protein (EGFP)-expressing cells are selected in the presence of 1 mg/mL G418 (Invitrogen, Carlsbad, Calif.), and colonies are expanded. Virus is harvested and filtered through a 0.45 um Millex-HA syringe-driven filter (Millipore, Billerica, Mass.) and 231-BR cells are infected with retrovirus for 6 hours. The following day, 231-BR cells are selected in the presence of 0.8 mg/mL G418, and EGFP expression in 95-99% of the cells is confirmed by fluorescent microscopy.
All animal experiments are conducted under an approved Animal Use Agreement with the NCI. Under isoflurane anesthesia, 20 female Balb/c nude mice (Charles River Laboratories, Frederick, Md.) 5-7 weeks old are inoculated with 500,000 (Experiment 1) or 100,000 (Experiment 2) MDA-MB-231-BR cells in 0.1 mL PBS in the left ventricle of the heart. Mice are monitored daily for signs of ill health. Three days after tumor cell inoculation mice are randomized to treatment groups and treatment is started. […] After 21 days of treatment, mice are euthanized under CO2 anesthesia and brains are excised for imaging. EGFP is detected in whole brains by the Maestro 420 In Vivo Spectral Imaging System (Cambridge Research and Instrumentation, Woburn, Mass.), using software (e.g., Nuance Technology, Burlington, Mass.) to distinguish or unmix images of fluorescence from multiple sources. After imaging, mouse brains are bisected along the sagittal plane and the right hemisphere of the brain is fixed in 4% paraformaldehyde for 24-48 hours at 4° C., then transferred to 20% sucrose overnight at 4° C. and frozen (for EGFP detection/histology). The left hemisphere is forallin-fixed and paraffin embedded for immunohistochemistry. Ten micron brain sections are serially cut and processed for either EGFP microscopy or histology. To detect EGFP, slides are dried at room temperature and 25 uL Vectashield HardSet Mounting Media with DAPI was added (Vector Laboratories, Burlingame, Calif.). Images are captured on a Zeiss Axioskop 2 microscope (Thornwood, N.Y.) using OpenLab software (Improvision, Lexington, Mass.). For staining with hematoxylin and eosin, a standard protocol is followed. Ten serial sections every 300 microns through the brain are analyzed using a 5× objective on a Zeiss microscope, containing an ocular grid with squares of 0.8 mm^2.
Every micro- or large (>50 microns^2) metastasis in each section is tabulated. Data are representative of two experiments conducted. Wilcoxon rank sum test is used to compare the number of total metastases and the number of large metastases in vehicle treated versus vorinostat treated mice. Tests can be performed using GraphPad InStat version 3.0 software. “Mean Micromets” in Tables 6 and 7 refer to the mean number of metastases counted in 10 step sections from one hemisphere of the brain. “Mean Large Mets” in Tables 6 and 7 refer to the size of metastases determined by a 16 mm^2 ocular grid. Large metastases are greater than 50 microns^2.

SMILES: O=C(CCCCCCC(=O)Nc1ccccc1)NO [SAHA, N-Hydroxy-N′-phenyloctanediamide]
- Mean Micromets (Experiment 1 (500,000 cells), 100 mg/kg SAHA IP once daily 21 days, vehicle 205.5): 140.4
- Mean Micromets (Experiment 1 (500,000 cells), 150 mg/kg SAHA IP once daily 21 days (lowered from 200 mg/kg), vehicle 205.5): 151.8
- Mean Large Mets (Experiment 1, 100 mg/kg SAHA IP once daily 21 days, vehicle 6.8): 2.9
- Mean Large Mets (Experiment 1, 150 mg/kg SAHA IP once daily 21 days (lowered from 200 mg/kg), vehicle 6.8): 3.5
- Mean Micromets (Experiment 2 (100,000 cells), 100 mg/kg SAHA IP once daily 21 days, vehicle 72.5): 78.3
- Mean Micromets (Experiment 2 (100,000 cells), 150 mg/kg SAHA IP once daily 21 days, vehicle 72.5): 66.6
- Mean Large Mets (Experiment 2, 100 mg/kg SAHA IP once daily 21 days, vehicle 3.3): 4.4
- Mean Large Mets (Experiment 2, 150 mg/kg SAHA IP once daily 21 days, vehicle 3.3): 1.5
- number of large (>50 micron^2) brain metastases, in words (in vivo, mice, IP SAHA vs vehicle): reduces the number
